From PubChem BioAssay (NCI)
“And” between values parts separate entries of the source, which are not always exact repeats. Equal entries are not always repeated.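 Test compounds were applied to cells in 96-well plates for 48 hours at 5 doses. Abbreviation: GI50, concentration required for 50% inhibition of growth. TGI is the concentration that stops growth completely.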

What was measured:
Test in all cases: NCI anticancer screen, dose series, 48 h
OVCAR-4 ovarian = system: OVCAR-4 ovarian
HT29 colon = system: HT29 colon
OVCAR-5 ovarian = system: OVCAR-5 ovarian
RPMI-8226 leukemia = system: RPMI-8226 leukemia
SK-OV-3 ovarian = system: SK-OV-3 ovarian
MOLT-4 leukemia = system: MOLT-4 leukemia
786-0 renal = system: 786-0 renal
SF-268 CNS = system: SF-268 CNS
COLO 205 colon = system: COLO 205 colon
IGROV1 ovarian = system: IGROV1 ovarian

| Compound | GI50 (OVCAR-4 ovarian) [µM] | GI50 (HT29 colon) [µM] | GI50 (OVCAR-5 ovarian) [µM] | TGI (OVCAR-5 ovarian) [µM] | TGI (RPMI-8226 leukemia) [µM] | GI50 (SK-OV-3 ovarian) [µM] | TGI (SK-OV-3 ovarian) | GI50 (MOLT-4 leukemia) [µM] | TGI (MOLT-4 leukemia) [µM] | GI50 (786-0 renal) [µM] | TGI (786-0 renal) [µM] | GI50 (SF-268 CNS) [µM] | TGI (SF-268 CNS) | GI50 (COLO 205 colon) [µM] | TGI (COLO 205 colon) [µM] | GI50 (IGROV1 ovarian) [µM] | TGI (IGROV1 ovarian) | TGI (OVCAR-4 ovarian) [µM] | TGI (HT29 colon) [µM] | GI50 (RPMI-8226 leukemia) [µM] |
| --- | --- | --- | --- | --- | --- | --- | --- | --- | --- | --- | --- | --- | --- | --- | --- | --- | --- | --- | --- | --- |
| COC1/C=C/C(C)C(C(C)C(OC)C(C)CCC(=O)C(C)C(C/C=C/N(C)C=O)OC)OC(=O)/C=C/C=C(\C)CC(OC)CC2=CC(=O)O[C@H](C2)C(C)C(OC)CC(OC)/C=C/C(C)C(OC)C1 (stereo partly drawn) | 0.0108 | 0.0236 | 0.119 | 0.714 | 0.0194 | 0.0382 | 0.229 µM and 0.0297 µM | 0.164 | 0.11 | 0.0155 | 0.0356 | 0.04 | 0.485 µM and 0.612 µM | 0.0184 | 0.131 | 0.0159 | 0.053 µM and 0.0341 µM | – | – | – |
| CC(=O)C(=Cc1ccc(C=C(C(C)=O)C(C)=O)cc1)C(C)=O | – | – | – | 5.88 | 1.71 | – | 17 µM | – | 3.6 | – | 5.84 | – | 3.97 µM | – | 3.33 | – | 4.18 µM | 6.76 | 3.05 | – |
| COc1ccc(-c2nc(-c3ccccc3)c(-c3ccccc3)[nH]2)cc1OC1CCCC1 | > 100 | 30.8 | > 100 | > 100 | > 100 | > 100 | > 100 µM | 71.2 | > 100 | > 100 | > 100 | > 100 | > 100 µM | > 100 | > 100 | > 100 | > 100 µM | > 100 | > 100 | 38.1 |
| COc1c(O)cc2oc(-c3ccc(O)cc3)cc(=O)c2c1O | – | – | – | > 100 | > 100 | – | > 100 µM | – | 83.2 | – | > 100 | – | > 100 µM | – | > 100 | – | 76.9 µM | > 100 | > 100 | – |
| O=CN/C=C/c1cccc(O)c1 | – | – | – | > 96.1 | > 100 | – | > 100 µM | – | > 100 | – | 83.7 | – | > 93.4 µM | – | > 100 | – | > 88.2 µM | > 93.8 | 74.8 | – |
| Nc1nc(N)c2nc(CNc3ccc(C(=O)NC(CC(=O)O)C(=O)O)cc3)cnc2n1 (stereo not drawn) | > 100 | 0.542 | 16.3 | > 100 | > 100 | > 53.5 | > 100 µM | 0.903 | > 100 | 0.372 | > 100 | 0.528 | > 100 µM | 31 | > 100 | 0.631 | > 100 µM | > 100 | > 100 | 6.43 |
| COC1=CC(c2ccc[nH]2)=N/C1=C\c1[nH]c(C)c(C(=O)CCCCC(=O)NC(C)(C)C)c1C | 1.78 | 0.552 | 1.89 | 8.73 | 1.64 | 9.31 | 25.5 µM | 0.854 | 4.29 | 1.7 | 3.36 | 1.6 | 4.32 µM | 1.22 | 2.46 | 2.1 | 4.59 µM | 6.29 | 3.11 | 0.237 |
| CNCCCn1c2c(c3ccc([N+](=O)[O-])cc3c1=O)C(=O)c1cc(OC)cnc1-2 | 0.173 | 0.0558 | 0.135 | 0.882 | 0.527 | 0.0568 | 0.351 µM | 0.0306 | 0.293 | 0.0362 | 0.189 | 0.0685 | 2.17 µM | 0.0569 | 0.636 | 0.205 | 2 µM | 10.1 | 0.38 | 0.0764 |
| C1COCCN1.C1COCCN1.NC1CCCCC1N.[Cl-].[Pt+2] (stereo not drawn) | > 100 | > 100 | > 100 | > 100 | > 100 | > 100 | > 100 µM | > 100 | > 100 | > 100 | > 100 | > 100 | > 100 µM | > 100 | > 100 | > 100 | > 100 µM | > 100 | > 100 | > 100 |
| Cc1ccc(-c2nc(C#N)c(S(=O)(=O)n3nc(C)cc3N)o2)cc1 | 4.26 | 2.37 | 12.4 | 27.5 | 10.1 | 27.5 | 71.1 µM | 1.97 | 4.77 | 2.35 | 6.35 | 16.4 | 36.2 µM | 2.15 | 4.19 | 2.99 | 8.28 µM | 20.7 | 5.45 | 3.07 |
| CC1CC2OC(=O)C(C)C2CC2(C)C(OC3OC(CO)C(O)C(O)C3O)OCCC12 (stereo not drawn) | – | – | – | > 100 | > 100 | – | > 100 µM | – | > 100 | – | > 100 | – | > 100 µM | – | > 100 | – | > 100 µM | > 100 | > 100 | – |
| CCn1cnc(C[C@H](NC(=O)[C@@H](NC(=O)Nc2cc(C(F)(F)F)cc(C(F)(F)F)c2)C(C)C)C(=O)OC)c1 | 1.83 | 2.02 | 4.98 | > 10 | 8.45 | 2.06 | 4.41 µM | 2.99 | 9.35 | 1.81 | 3.67 | 1.76 | 3.4 µM | 2.61 | 7.07 | 2.33 | 5.75 µM | 3.54 | 4.1 | 2.76 |
| O=C(N/C(=C/c1ccc(Cl)cc1Cl)c1nc2ccccc2s1)c1ccccc1 | – | – | – | 32 | > 100 | – | 79.3 µM | – | > 100 | – | 35.4 | – | 34 µM | – | 37.2 | – | 26.2 µM | 33.7 | 40.1 | – |
| C=C1/C(=C\C=C2/CCC[C@]3(C)[C@@H]([C@H](C)CCCC(C)(C)O)CC[C@@H]23)C[C@@H](OC(=O)CBr)C[C@@H]1O | 0.329 | 1.15 | 1.55 | 19.3 | 2.48 | 14.9 | 29.5 µM | 0.371 | 2.05 | 0.642 | 1.89 | 2.26 | 6.1 µM | 2.58 | 19.6 | 0.0604 | 0.15 µM | 1.6 | 10.5 | 0.293 |
| COc1cccc(-c2nn(-c3ccccc3)cc2-c2ccnc(NCCCNC(=O)Nc3ccc(Cl)c(Cl)c3)c2)c1 | 3.55 | 2.55 | 3.53 | 25.4 | 5.37 | 4.92 | 18.6 µM | 1.95 | 5.85 | 1.82 | 3.97 | 3.32 | 13.9 µM | 1.87 | 3.82 | 4.24 | 19.4 µM | 18.1 | 5.19 | 2.13 |
| COc1cccc(C2=C(c3c(C)n(C)c4ccccc34)C(=O)NC2=O)c1 | > 21.5 | 14.4 | > 25 | > 25 | > 25 | > 25 | > 25 µM | 16.1 | > 25 | > 25 | > 25 | > 23.1 | > 25 µM | 14.8 | > 25 | > 22.3 | > 25 µM | > 25 | > 25 | > 25 |
| COc1cccc2c1ccc1nc3cccc(C(=O)N[C@H](C)CN(C)C)c3nc12 | 0.0927 | 0.0427 | 0.154 | 11.3 | 0.647 | 0.144 | 1.89 µM | 0.0454 | 4.85 | 0.0887 | 2.44 | 0.0654 | 0.916 µM | 0.0646 | 0.282 | 0.0549 | 11.9 µM | 0.894 | 0.365 | 0.0918 |
| COc1ccc(C2CC(C)(O)Oc3cc4c(cc32)OCO4)cc1 (stereo not drawn) | – | – | – | > 100 | > 100 | 43.2 | > 100 µM | – | 88.6 | – | > 100 | – | > 100 µM | – | 46 | – | > 100 µM | > 100 | > 82.6 | – |
